# Experimental data from publication PMC9007292, “8‐Prenylnaringenin tissue distribution and pharmacokinetics in mice and its binding to human serum albumin and cellular uptake in human embryonic kidney cells” (Food Science & Nutrition, 2022).
# Values joined by “and” are separate entries in the source; they are usually repeats but may differ in a detail not shown here. Identical values can stand only once.
# Experiments:
# site II of HSA = site II of HSA (Homo sapiens, UniProt P02768); assay: Fluorescence competitive binding assay with site‐selective probe BD140; conditions: for inhibition at 100 µM: human, defatted human serum albumin (HSA) in phosphate buffer, pH 7.4, probe BD140; for Competitive inhibition rate of the probe binding, Site II: BD140 probe, 100 µM, n = 3, mean ± SE
# site II of HSA, sequence (P02768 25-609): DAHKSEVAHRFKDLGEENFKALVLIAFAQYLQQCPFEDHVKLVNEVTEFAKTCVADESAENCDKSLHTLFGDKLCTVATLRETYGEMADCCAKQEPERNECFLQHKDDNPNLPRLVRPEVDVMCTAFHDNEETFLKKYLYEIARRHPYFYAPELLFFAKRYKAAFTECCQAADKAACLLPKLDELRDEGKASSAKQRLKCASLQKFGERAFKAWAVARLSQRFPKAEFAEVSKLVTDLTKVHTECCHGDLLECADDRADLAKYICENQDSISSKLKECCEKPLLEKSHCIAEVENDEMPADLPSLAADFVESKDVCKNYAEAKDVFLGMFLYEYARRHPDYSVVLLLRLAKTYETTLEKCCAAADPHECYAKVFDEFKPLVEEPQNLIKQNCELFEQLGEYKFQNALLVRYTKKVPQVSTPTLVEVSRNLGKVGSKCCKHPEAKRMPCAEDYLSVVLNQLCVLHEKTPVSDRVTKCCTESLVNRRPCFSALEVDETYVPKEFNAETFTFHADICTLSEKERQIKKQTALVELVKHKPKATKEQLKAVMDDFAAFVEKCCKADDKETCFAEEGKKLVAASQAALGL
# Description: (§1) A fluorescent dye cocktail containing 0.33 mM BD140 and 1 mM DNSA was prepared in DMSO. Defatted HSA (A3782‐1G; Sigma‐Aldrich) was dissolved in phosphate buffer (pH 7.4) at a concentration of 0.67 mg/ml. Each flavonoid was dissolved in DMSO (stock solution) at 100 times the test concentration. Subsequently, 637 µl HSA solution, 6.5 µl fluorescent dye cocktail, and 6.5 µl flavonoid were mixed and divided into three wells on a 96‐well multi‐black plate. The final concentration of flavonoids was 1–100 μM. […] The HSA‐binding affinities of the flavonoids were evaluated by measuring the competitive inhibition rate of the probes binding to flavonoids according to Equation (1): (1) Flavonoidinhibitionpercentage(%)=F1‐F2/F1×100, where F 1 is the fluorescence intensity of DMSO and F 2 represents the fluorescence intensity of each flavonoid.
# site I of HSA = site I of HSA (Homo sapiens, UniProt P02768); assay: Fluorescence competitive binding assay with site‐selective probe DNSA; conditions: for inhibition at 100 µM: human, defatted human serum albumin (HSA) in phosphate buffer, pH 7.4, probe dansylamide (DNSA); for Competitive inhibition rate of the probe binding, Site I / Inhibition ratio, site I: DNSA probe; for Competitive inhibition rate of the probe binding, Site I: 100 µM, n = 3, mean ± SE
# site I of HSA, sequence (P02768 25-609): as above
# Description: as §1
# [1] = Tissue distribution after 22 days of 8‐PN or naringenin mixed diet; format: in vivo, C57/BL6 mice; conditions: for Percentage of aglycone in the liver: aglycone to total; for 8‐PN aglycone in the liver: without deconjugation
# From the text: We planned the nutritional composition and feeding period according to previous similar research (Andres-Lacueva et al., [2012]; Bieger et al., [2008]; Boer et al., [2005]; Mukai et al., [2013]; Takumi et al., [2011]). […] Though this dose concentration may not be achieved through regular diet or supplementation, this concentration was used in accordance with previous studies that evaluated the tissue distribution of flavonoids (0.2% [w/w]) (Mukai et al., [2013]; Takumi et al., [2011]). The mice were fed each diet via normal oral feeding for 22 days. In the pharmacokinetic study (Section 2.5), we administered each nutrient to mice at a dose of 50 mg/kg body weight (BW) via oral gavage after 18 h of starvation. Although this dose concentration may not reflect regular diet or supplementation, this or higher concentrations have been applied for pharmacokinetic study of flavonoids (Bai et al., [2020]; Hung et al., [2018]; Mukai et al., [2013]). All experimental protocols were approved by the Committee on Animal Experiments of Tokushima University (approval number: 11013). All efforts were made to minimize animal suffering. Seven-week-old male C57/BL6 mice (Japan SLC) were housed in a room maintained at 23 ± 1°C under a 12-h/12-h light/dark cycle. Diets consisted of 8-PN or naringenin (0.56 mmol/kg diet) mixed with AIN-93M (AIN-93M; Oriental Yeast Company), with the cellulose contents reduced to adjust the composition of other nutrients. The mice (n = 7 or 8) were fed these diets via normal oral feeding for 22 days and allowed free access to water. The liver, kidneys, quadricep muscles, pancreas, lungs, brain, spleen, and heart were collected from the mice under anesthesia and weighed. Before freezing, the liver tissues were flushed with ice-cold phosphate-buffered saline (PBS, pH 7.4) to avoid blood contamination. All samples were stored at -80°C under N2 gas until extraction of flavonoid. Sample preparation was performed according to a previous report (Mukai et al., [2013]). Each tissue was homogenized in PBS on ice (nine times the volume of the tissue wet weight) using a Teflon homogenizer (As One). […] The hydrolysates were then subjected to extraction three times with equal volumes of ethyl acetate and evaporated using a centrifugal evaporator (CVE-100; Tokyo Rikakikai). The extracts were dissolved in 50 μl of methanol containing 0.5% phosphoric acid. Then, 20 μl from each sample was injected into the HPLC-UV system. […] Shimadzu) with a Cadenza CD-C18 HPLC column (3 μm, 4.6 × 150 mm; […]). […] 8-PN and naringenin amounts were determined using an internal standard method. […] Since a clear peak was actually detected for 8-PN over 2 pmol (0.1 μM), and for naringenin over 4 pmol (0.2 μM) based on visual evaluation, we determined these concentrations were the LODs for each flavonoid.
# [2] = parameters: method as in Rad et al., 2006; conditions: postmenopausal women, mostly conjugated metabolites, ref Rad et al., 2006; cited from earlier work
SMILES,inhibition at 100 µM (site II of HSA) [%],inhibition at 100 µM (site I of HSA) [%],"Competitive inhibition rate of the probe binding, Site II (site II of HSA)","Competitive inhibition rate of the probe binding, Site I (site I of HSA)","Inhibition ratio, site I (site I of HSA; 1 µM) [%]","Inhibition ratio, site I (site I of HSA; 50 µM) [%]",also measured
O=C1C[C@@H](c2ccc(O)cc2)Oc2cc(O)cc(O)c21 [Naringenin],8.3 ± 3.9,25.3 ± 0.4,–,–,–,–,–
"O=C1C[C@@H](c2ccc(O)cc2)Oc2cc(O[C@@H]3O[C@H](C(=O)O)[C@@H](O)[C@H](O)[C@H]3O)cc(O)c21 [N7G, naringenin 7‐glucuronide, reference compound]",–,–,9.6 ± 4.8%,10.0 ± 3.0%,–,–,–
"CC(C)=CCc1c(O)cc(O)c2c1OC(c1ccc(O[C@@H]3O[C@H](C(=O)O)[C@@H](O)[C@H](O)[C@H]3O)cc1)CC2=O (stereo partly shown) [8‐PN‐4′G, 8‐PN 4′‐glucuronide]",–,–,n.d. ^a (The result without competitive inhibition (≤0) with the fluorescent probe is shown as not determined (n.d.)),n.d. ^a (The result without competitive inhibition (≤0) with the fluorescent probe is shown as not determined (n.d.)),–,–,–
"O=C1C[C@@H](c2ccc(O[C@@H]3O[C@H](C(=O)O)[C@@H](O)[C@H](O)[C@H]3O)cc2)Oc2cc(O)cc(O)c21 [N4′G, Naringenin 4′‐glucuronide, reference compound]",–,–,2.4 ± 2.4%,5.2 ± 2.8%,–,–,–
"CC(C)=CCc1c(O[C@@H]2O[C@H](C(=O)O)[C@@H](O)[C@H](O)[C@H]2O)cc(O)c2c1OC(c1ccc(O)cc1)CC2=O (stereo partly shown) [8‐PN‐7G, 8‐PN 7‐glucuronide]",–,–,n.d. ^a (The result without competitive inhibition (≤0) with the fluorescent probe is shown as not determined (n.d.)),37.2 ± 0.6 %,12.8,37.9,Binding constant to HSA (site I of HSA; from competition profile for site I (Figure 3)): 24200 M
"CC(C)=CCc1c(O)cc(O)c2c1O[C@H](c1ccc(O)cc1)CC2=O [8‐PN, 8‐Prenylnaringenin]",28.3 ± 2.8,61.1 ± 0.6,–,–,10.3,36.7,"Percentage of aglycone in the liver ([1]; average of 7 mice): 11.7%; 8‐PN aglycone in the liver ([1]; average of 7 mice): 1.58 nmol/g wet tissue; Percentage of aglycone in the liver ([1]; individual mice #1-7): 15.9% and 20.9% and 9.5% and 6.3% and 7.8% and 5.7% and 15.7%; 8‐PN aglycone in the liver ([1]; individual mice #1-7, 22 days diet): 0.62 nmol/g wet tissue and 3.23 nmol/g wet tissue and 1.62 nmol/g wet tissue and 1.50 nmol/g wet tissue and 0.66 nmol/g wet tissue and 1.18 nmol/g wet tissue and 2.24 nmol/g wet tissue; Time of absorption into the bloodstream after oral administration [2]: 1 to 1.5 h"
